Measured values taken from patent US20240306670A1, “BERBERINE ALKALOIDS IN THE PREVENTION AND/OR TREATMENT OF INTESTINAL DISEASE” (priority 2017, published 2024).
Where two headings read alike, the source gives them in different places.

How the values were obtained:
[1] = tested on: clinical isolate of C. difficile; test: In vitro MIC and MBC against Clostridium difficile (Example 6); type: cell-based
[2] = tested on: Necrotic Enteritis strain of C. perfringens; type: cell-based, Clostridium perfringens
[3] = tested on: E. coli causing scour; test: In vitro MIC against pig disease strains (Example 5); type: cell-based; conditions: all 5 strains of E. coli causing scour
[4] = Feed palatability, feed and water consumption and bird productivity study (Example 2); type: in vivo, broiler chickens; conditions: treated birds, in-water days 6-42
From the text: A follow-up study to determine the feed palatability, feed and water consumption and bird productivity following incorporation of a single formulation of IRP001 hemisulfate salt (unmasked) when offered to broiler chickens in-feed or in-water. The study explores the optimal treatment regime in terms of treatment start date.
Phase 1: On receipt, two hundred and seventy (270) day-old commercial broiler chickens were allocated sequentially as they are received into sixteen (16) individual floor pens, each of 16 or 17 birds, on Day 0.
Phase 2: On receipt, the ninety (90) day-old commercial broiler chickens were allocated sequentially as they are received into four (4) individual floor pens, each of 22 or 23 birds, on Day 22.
Feed intake, water intake, weight gain and mortality were used as outcome parameters.
Individual daily feed intake and individual daily water intake data by pen and then by treatment group were calculated for Phases 1 and 2 (and for the entire trial for the birds in Group/Pen 2, 15 and 16 that continue through both Phases) using figures for total feed and water provided each day to each pen divided by the number of birds in each pen. Where errors in weighing, feeding/watering or recording (or other unexplained losses of feed and water) had occurred means were adjusted by using the mean value for the same pen on the 1-2 days either side of the apparent error. Similarly, group mean bodyweights were calculated for Phase 1 using total weight/total no. birds for Day 0 and individual weights from Days 7, 14, 21, 28, 35 and 42. Total (individual) feed consumed was calculated per treatment and feed conversion ratios per treatment calculated using the expression: total (individual) feed/total (individual) weight gain.
Individual daily feed intake and individual daily water intake were statistically compared by treatment within each phase and between Pens 2 and 15/16 over both phases using a linear model:—
and Tibco SPOTFIRE S+ 8.2 (2010). ‘Day’ was included in the model to allow for changes over time, ‘Pen’ as each treatment consisted of 2 pens while an interaction term ‘Treatment:Day’ was included to allow for treatment×time effects. Model suitability was confirmed by inspection of residual plots; in all instances the statistical model was appropriate.

[5] = cited from earlier work
[6] = tested on: Clostridium Perfringens (type A strain EHE-NE36) after Eimeria oocyst challenge; conditions: NE challenged broilers; for median lesion scores: relative to nil-treatment; for small intestinal lesion scores: relative to nil treatment
[7] = tested on: Eimeria species (mainly E. acervulina)
[8] = in vivo; cited from earlier work
[9] = in vivo

## CN[C@H](CC(C)C)C(=O)N[C@H]1C(=O)N[C@@H](CC(N)=O)C(=O)N[C@H]2C(=O)N[C@H]3C(=O)N[C@H](C(=O)N[C@H](C(=O)O)c4cc(O)cc(O)c4-c4cc3ccc4O)[C@H](O)c3ccc(c(Cl)c3)Oc3cc2cc(c3O[C@@H]2O[C@H](CO)[C@@H](O)[C@H](O)[C@H]2O[C@H]2C[C@](C)(N)[C@H](O)[C@H](C)O2)Oc2ccc(cc2Cl)[C@H]1O [Vancomycin, reference compound]
[1]
  MIC: within the expected range
[2]
  MIC: within the expected range

## COc1cc2c(cc1OC)-c1cc3ccc(OC)c(OC)c3c[n+]1CC2 [palmatine]
[3]
  MIC: 125 mg/L

## berberine hemisulfate [IRP001 sulfate]
[4]
  FCR (feed conversion ratio): 1.6 kg feed: 1 kg gain
  weight gained: 2.35 kg
[5]; ethanol
  solubility: slightly soluble
[5]; water
  solubility: about 30 parts water
[6]; 0.1 g/L in-water
  median lesion scores: no reduction in median lesion scores
[6]; 0.1 g/L in-water, vs nil-treatment
  Mortalities prior to autopsy: not significantly different
[6]; 0.2 g/kg in-feed
  median lesion scores: no reduction in median lesion scores
[6]; 0.2 g/kg in-feed, vs nil-treatment
  Mortalities prior to autopsy: not significantly different
[6]; 1.0 g/L in-water
  small intestinal lesion scores: substantial reduction in small intestinal lesion scores
[6]; 1.0 g/L in-water, relative to nil-treatment and low-dose groups
  Mortalities prior to autopsy: significant reduction in mortalities
[6]; 2.0 g/kg in-feed
  small intestinal lesion scores: substantial reduction in small intestinal lesion scores
[6]; 2.0 g/kg in-feed, relative to nil-treatment and low-dose groups
  Mortalities prior to autopsy: significant reduction in mortalities

## CC[C@@H](C(=O)[C@@H](C)[C@@H](O)[C@H](C)[C@@H]1O[C@@H]([C@@H](CC)C(=O)O)CC[C@@H]1C)[C@H]1O[C@]2(C=C[C@@H](O)[C@]3(CC[C@@](C)([C@H]4CC[C@](O)(CC)[C@H](C)O4)O3)O2)[C@H](C)C[C@@H]1C [salinomycin, Salinomycin, reference compound]
[7]; 21 days
  Intestinal health score: Ballooning (total gut): 0.10
  Intestinal health score: Contents lower intestine: 0.45
  Intestinal health score: Contents upper intestine: 0.65
  Intestinal health score: Hyperaemia lower intestine: 0.00
  Intestinal health score: Hyperaemia upper intestine: 0.15
  Intestinal health score: Tonus lower intestine: 0.50
  Intestinal health score: Tonus upper intestine: 0.50
  Intestinal health score: Total Intestine (maximum 10): 3.55
  Intestinal health score: Translucency lower intestine: 0.85
  Intestinal health score: Translucency upper intestine: 0.20^B
  Intestinal health score: Undigested particles in (rectum): 0.15^B
[7]; 28 days
  Intestinal health score: Ballooning (total gut): 0.80
  Intestinal health score: Contents lower intestine: 0.00
  Intestinal health score: Contents upper intestine: 1.00
  Intestinal health score: Hyperaemia lower intestine: 0.20
  Intestinal health score: Hyperaemia upper intestine: 0.80
  Intestinal health score: Tonus lower intestine: 0.60
  Intestinal health score: Tonus upper intestine: 0.80
  Intestinal health score: Total Intestine (maximum 10): 5.20
  Intestinal health score: Translucency lower intestine: 0.20
  Intestinal health score: Translucency upper intestine: 0.40
  Intestinal health score: Undigested particles in (rectum): 0.40
[7]; in vivo
  FCR 0-14 corrected for mortality: 1.113
  FCR 0-21 corrected for mortality: 1.238
  FCR 0-28 corrected for mortality: 1.470
  FCR 0-42 corrected for mortality: 1.546^BC
  Faecal oocyst count, Mean: 72,046 Oocyst/g
  Feed per bird over days 0-14: 497^AB g/bird
  Feed per bird over days 0-21: 1193^B g/bird
  Feed per bird over days 0-28: 2074 g/bird
  Feed per bird over days 0-42: 4298 g/bird
  Mean Coccidiosis Lesion Score (maximum 4) Caeca: 0.00
  Mean Coccidiosis Lesion Score (maximum 4) Duodenum: 1.35^ABC
  Mean Coccidiosis Lesion Score (maximum 4) Ileum: 0.00
  Mean Coccidiosis Lesion Score (maximum 4) Jejunum: 0.40^B
  Mean Coccidiosis Lesion Score Total: 1.75^B
  Mean Weight Gain over days 0-7: 116 gm
  Mean Weight Gain over days 8-14: 330^BC gm
  Mean Weight Gain over days 15-21: 517^A gm
  Mean Weight Gain over days 22-28: 645 gm
  Mean Weight Gain over days 29-42: 1384 gm
  Mean live weight at 0 days: 41 gm
  Mean live weight at 7 days: 157 gm
  Mean live weight at 14 days: 446^B gm
  Mean live weight at 21 days: 963^AB gm
  Mean live weight at 28 days: 1608^A gm
  Mean live weight at 42 days: 2991^A gm
  growth rate: statistically similar to the control group

## COc1ccc2cc3[n+](cc2c1OC)CCc1cc2c(cc1-3)OCO2 [IRP001, berberine]
[1]; Clostridioides difficile, C. difficile clinical isolate, Berberine sulfate as test agent, variation between replicates, read-out: MIC
  MIC: 500 to 1000 mg/L
[1]; Clostridioides difficile, against CD (C. difficile)
  MBC: 880 to 1000 mg/L
[1]; Clostridioides difficile, against CD (C. difficile), read-out: MIC
  MIC: 640 to 820 mg/L
[2]; C. perfringens NE strain, Berberine sulfate (purity 98.0%) as test agent
  MIC: 125 mg/L
[2]; C. perfringens, at 62.5 µg/ml
  inhibition of growth: partial inhibition of growth
[8]
  carcinogenicity finding: potential carcinogenicity
[9]
  adverse reactions / unanticipated events: no adverse reaction or unanticipated event
